US20180318275A1, “COMBINATION THERAPY USING PI3K INHIBITOR AND MDM2 INHIBITOR” (Novartis AG, priority 2015, published 2018)

Columns and labels:
Format in all cases: cell-based
[1] = test system: 5 TP53 wild type colorectal cancer cell lines; assay: Cell proliferation over the cell line panel, Example 3; details: Example 3, panel of 5 lines, 13 nM-10 μM
Experimental: To test the effect of the combination of COMPOUND A, COMPOUND B, and COMPOUND C on cell proliferation cells were plated in black 384-well microplates with clear bottom (Matrix/Thermo Scientific, Catalog number 4332) in 50 μL media per well at cell densities between 500 and 1250 cells/well (Table 1 above) and allowed to incubate at 37 degrees, 5% CO2 for 24 h. After 24 h one 384-well plate per cell line was prepared for cell counting by microscopy (see below) without receiving treatment (=‘baseline’). The other cell plates were treated by transferring 25 nL of the 2000× compound from drug master plates using an ATS acoustic liquid dispenser (ECD Biosystems) and resulting in a final 1× concentration. COMPOUND A was used over a final concentration range of 13 nM-10 μM, COMPOUND B was used over a final concentration range of 13 nM-10 μM, and COMPOUND C was used over a final concentration range of 13 nM-10 μM (7 1:3 dilution steps). In order to assess the effect of the triple combination all individual COMPOUNDS (A, B, C), all three pair wise combinations (A+B, A+C, B+C), and the triple combination (A+B+C) were tested in the same experiment. […] Caspase 3/7 induction was measured as a proxy for apoptosis induced by the treatments. Cells were treated for 72 h to 96 h depending on their doubling time (Table 1), and Caspase 3/7 activation was measured every 24 h by microscopy using an InCell Analyzer 2000 (GE Healthcare) equipped with a 4× objective and FITC excitation/emission filters. […] All cells per well/treatment were captured in a single image by fluorescence microscopy using an InCell Analyzer 2000 (GE Healthcare) equipped with a 4× objective and DAPI excitation/emission filters.
Images were analyzed after adapting previously described methods (Horn, Sandmann et al. 2011, Nat. Methods 8(4): 341-346) and using the Bioconductor package EBImage in R (Pau, Fuchs et al. 2010, Bioinformatics 26(7):979-981). Objects in both channels, DAPI (for Hoechst/DNA) and FITC (for Caspase 3/7), were segmented separately by adaptive thresholding and counted. […]

LoVo = assay: Cell proliferation (cell count by microscopy), Example 3; details: Homo sapiens, single agent, 96 h, cell count relative to DMSO
Experimental: (§1) COMPOUNDS A, B and C were dissolved in 100% DMSO (Sigma, Catalog number D2650) at concentrations of 20 mM and stored at −20° C. until use. Compounds were arrayed in drug master plates (Greiner, Catalog number 788876) and serially diluted 3-fold (7 steps) at 2000× concentration.
(§2) To test the effect of the combination of COMPOUND A, COMPOUND B, and COMPOUND C on cell proliferation cells were plated in black 384-well microplates with clear bottom (Matrix/Thermo Scientific, Catalog number 4332) in 50 μL media per well at cell densities between 500 and 1250 cells/well (Table 1 above) and allowed to incubate at 37 degrees, 5% CO2 for 24 h. After 24 h one 384-well plate per cell line was prepared for cell counting by microscopy (see below) without receiving treatment (=‘baseline’). The other cell plates were treated by transferring 25 nL of the 2000× compound from drug master plates using an ATS acoustic liquid dispenser (ECD Biosystems) and resulting in a final 1× concentration. COMPOUND A was used over a final concentration range of 13 nM-10 μM, COMPOUND B was used over a final concentration range of 13 nM-10 μM, and COMPOUND C was used over a final concentration range of 13 nM-10 μM (7 1:3 dilution steps). In order to assess the effect of the triple combination all individual COMPOUNDS (A, B, C), all three pair wise combinations (A+B, A+C, B+C), and the triple combination (A+B+C) were tested in the same experiment. Pair wise combinations and the triple combination were tested at a fixed ratio of 1:1 (for drug pairs) and 1:1:1 (for the drug triple) at each dilution resulting in 7 combination conditions per treatment. […] After compound addition 50 nL of 2 mM CellEvent Caspase-3/7 Green Detection Reagent (ThermoFisher, Catalog number C10423) were added to one of the three replicates using the HP D300 Digital Dispenser (Tecan). Caspase 3/7 induction was measured as a proxy for apoptosis induced by the treatments. Cells were treated for 72 h to 96 h depending on their doubling time (Table 1), and Caspase 3/7 activation was measured every 24 h by microscopy using an InCell Analyzer 2000 (GE Healthcare) equipped with a 4× objective and FITC excitation/emission filters. At the end of the treatment cells were prepared for cell counting by microscopy. Cells were fixed and permeabilised for 45 minutes in 4% PFA (Electron Microscopy Sciences, Catalog number 15714), 0.12% TX-100 (Electron Microscopy Sciences, Catalog number 22140) in PBS (Boston Bioproducts, Catalog number BM-220). After washing cells three times with PBS their DNA was stained for 30 minutes with Hoechst 33342 (ThermoFisher, Catalog number H3570) at a final concentration of 4 μg/mL. Cells were washed three times with PBS and then plates were heat-sealed using a PlateLoc (Agilent Technologies) with aluminum seals (Agilent Technologies, Catalog number 06644-001) and stored at 4° C. until imaging. All cells per well/treatment were captured in a single image by fluorescence microscopy using an InCell Analyzer 2000 (GE Healthcare) equipped with a 4× objective and DAPI excitation/emission filters.
(§3) Images were analyzed after adapting previously described methods (Horn, Sandmann et al. 2011, Nat. Methods 8(4): 341-346) and using the Bioconductor package EBImage in R (Pau, Fuchs et al. 2010, Bioinformatics 26(7):979-981). Objects in both channels, DAPI (for Hoechst/DNA) and FITC (for Caspase 3/7), were segmented separately by adaptive thresholding and counted. A threshold for Caspase 3/7 positive objects was defined manually per cell line after comparing negative controls (DMSO) and positive controls (Staurosporine). By analyzing 17 additional object/nuclei features in the DNA channel (shape and intensity features) debris/fragmented nuclei were identified. To this end per cell line the distributions of the additional features between positive controls (Staurosporine) and negative controls (DMSO) were compared manually. […]

LS-180 = assay: as above; details: Homo sapiens, LS180; LS-160 (so in the source), single agent, 72 h, cell count relative to DMSO
Experimental: as §1, §2, §3

GP2d = assay: as above; details: single agent, 72 h, cell count relative to DMSO, unit (micromolar, top dose 10 μM)
Experimental: as §1, §2, §3

RKO = assay: as above; details: Homo sapiens, single agent, 72 h, cell count relative to DMSO
Experimental: as §1, §2, §3

HCT-116 = assay: as above; details: Homo sapiens; HCT-116, single agent, 72 h, cell count relative to DMSO
Experimental: as §1, §2, §3

IC50 (LoVo): > 10 µM | IC50 (HCT-116): > 10 µM
SMILES: CC1(C)CCC(c2ccc(Cl)cc2)=C(CN2CCN(c3ccc(C(=O)NS(=O)(=O)c4ccc(N[C@H](CCN5CCOCC5)CSc5ccccc5)c(S(=O)(=O)C(F)(F)F)c4)cc3)CC2)C1 [COMPOUND C, 4-[4-[[2-(4-Chlorophenyl)-5,5-dimethyl-1-cyclohexen-1-yl]methyl]-1-piperazinyl]-N-[[4-[[(1R)-3-(4-morpholinyl)-1-[(phenylthio)methyl]propyl]amino]-3-[(trifluoromethyl)sulfonyl]phenyl]sulfonyl]benzamide, reference compound]
Single agent growth inhibition, in words [1]: no single agent efficacy | IC50 (LS-180): > 10 µM | IC50 (GP2d): > 10 µM | IC50 (RKO): > 10 µM
